Measurements as given in patent US11998550B2, “Trametinib prevents mesothelial-mesenchymal transition and ameliorates abdominal adhesion and pulmonary fibrosis formation” (Thomas Jefferson University, priority 2017, dated 2024).

What was measured:
[1] = test system: rat peritoneal mesothelial cells; assay: TGF-β induced mesothelial/mesenchymal transition (MMT), cell morphology; type: cell-based; conditions: trametinib alone, no TGF-β, five days
Description: Isolated mesothelial cells were incubated under control conditions without either TGF-β or trametinib, with TGF-β or trametinib alone, or with both TGF-β and trametinib for five days (FIGS. 1 and 2).
The experiments in this study were approved by the Institutional Animal Care and Use Committee at Thomas Jefferson University, and were performed in accordance with the National Institutes of Health guidelines for the care and handling of laboratory animals. RPMCs were isolated and cultured as described previously. Briefly, Sprague Dawley rats weighing 150 g-250 g, purchased from Jackson Laboratory, were injected intra-peritoneally with 30 ml of 0.25% trypsin/2.21 mM EDTA under Isoflurane anesthesia and were kept on the metal pad warmed to 37° C. for one hour; after which the abdominal fluid was collected and centrifuged at 300 g for 10 minutes. The isolated pelleted cells were re-suspended and cultured in DMEM/F12 medium supplemented with 10% (v/v) FBS at 37° C. in a humidified atmosphere of 5% CO2 in air. The RPMCs, from the fourth to seventh passages (split ratio 1:4), at 90% confluence were used for the experiments. The cells were treated either with 10 ng/ml of TGF-β1 (R&D systems) alone, or with TGF-β1 and the MEK1/2 inhibitor, Trametinib (2 or 5 nM).

[2] = test system: phospho-MEK1/2, phospho-Erk1/2, FNEDA, αSMA, phospho-Smad2 (linker); assay: Western analysis of TGF-β1 treated rat peritoneal mesothelial cells; type: cell-based; conditions: Western blot, FIG. 2
Description: These insights led us to explore the potential mechanisms of action of trametinib using Western blotting analyses (FIG. 2). […] These increases in gene expression of phosphor-Erk 1/2, FNEDA, αSMA and p-SMAD2 (linker) were blocked by as low a concentration of trametinib as 2 nM (FIG. 2).
The experiments in this study were approved by the Institutional Animal Care and Use Committee at Thomas Jefferson University, and were performed in accordance with the National Institutes of Health guidelines for the care and handling of laboratory animals. RPMCs were isolated and cultured as described previously. […]
RPMCs were lysed in ice-cold modified RIPA buffer with protease inhibitor cocktail (50 mM/L Tris-HCl, 1% NP-40, 0.25% Na-deoxycholate, 150 mM/L NaCl, 1 mM/L EDTA, 1 mmol/L phenylmethyl sulfonyl fluoride, 1 mM/L sodium orthovanadate, 1 mM/L NaF, pH 7.4). Equivalent amounts of homogenate (50 μg/well), determined by Coomassie blue assay, were separated by sodium dodecyl sulfate polyacrylamide gel electrophoresis (SDS-PAGE), transferred to either nitrocellulose or PVDF membranes, and detected by SuperSignal West Femto or Pico chemiluminescence.

Solubility in water = type: physicochemical
C57BL/6 mice = assay: Cecal abrasion model of intra-abdominal adhesion formation, drug by osmotic pump for eight days
Description: Mice were allowed to acclimate in the animal facility for at least one week prior to surgery, given free access to standard chow and water and a 12-h light-dark cycle in standard acrylic cages with wood chip bedding. Animals were randomly assigned into either an experimental group (laparotomy and cecal abrasion) or a control group (laparotomy only).
Briefly, mice underwent induction and maintenance anesthesia with 1-3% isofluorane with supplemental oxygen. After adequate sedation was achieved, mice were weighed and 0.1 mg/kg subcutaneous Buprenex (Hospira, Inc., Lake Forest, IL) was administered to ensure analgesia. The ventral surface was clipped along the midline and the skin was sterilized with betadine. A 2 cm midline incision was made subxiphoid to avoid injuring the bladder and the cecum was identified and externalized. The anti-mesenteric side of the cecum was gently swiped 30 times with gauze then returned to the abdomen. The incision was closed with a double layer of sutures with 2-0 silk [13]. […] In the drug escalation study, laparotomy and cecal abrasion were carried out as above as well as sub-dermal placement of the osmotic pumps.
Groups of 5 animals were given 0.1, 1.0 or 3.0 mg/kg animal weight of drug/day via osmotic pumps (Alzet Osmotic Pump 1002, Cupertino, CA) for eight days prior to sacrifice. The volume delivered/day was 6 ul of drug. Control mice underwent induction with anesthesia and laparotomy only. In addition, 5 animals underwent laparotomy and placement of the osmotic pumps which were filled with “drug vehicle (DMSO)” alone i.e., no drug. After 8 days of drug treatment, mice were euthanized under isofluorane anesthesia followed by cervical dislocation. Adhesions were examined by two independent practitioners. […]
Intestinal tissue was placed in Tissue-Tek O.C.T. Compound (Sakura Finetek, Torrance, CA) and immediately frozen in liquid nitrogen. […] Slides were mounted with DAPI Fluoromount-G (Southern Biotech) and fluorescence images were taken with a Zeiss epi-fluorescence microscope. […]

[3] = test system: rat peritoneal mesothelial cells; conditions: previous finding, ref [10]; cited from earlier work

SMILES | effect of drug alone on cell appearance / toxicity [1] | concentration blocking TGF-β induced increases of phospho-Erk1/2, FNEDA, αSMA and p-SMAD2 (linker) [2] | solubility in water (Solubility in water) | average decrease in weight (C57BL/6 mice; 1.0 mg dose, eight day period of drug delivery) | average increase in weight (C57BL/6 mice; 3.0 mg dose, eight day period of drug delivery) | wound closure and healing at laparotomy site (C57BL/6 mice; highest drug dose (3 mg/kg/day)) | effect on rat peritoneal mesothelial/mesenchymal transition induced by TGF-β [3]
CC(=O)Nc1cccc(-n2c(=O)n(C3CC3)c(=O)c3c(Nc4ccc(I)cc4F)n(C)c(=O)c(C)c32)c1 [trametinib] | no effect and no apparent toxic effects | ≤ 2 nM | minimally soluble in water | 2.2% | 0.5% | no effect on wound closure and healing | –
N#CC(=C(/N)Sc1ccccc1N)/C(C#N)=C(\N)Sc1ccccc1N [U0126] | – | – | – | – | – | – | blocked
